How the values were obtained:
[1] = test system: anti-Thy 1 glomerulonephritis; assay: Glomerular ED1+ monocyte/macrophage count; assay type: in vivo, Sprague Dawley rats; conditions: Enalapril alone, P<0.05
Procedure: These experiments were performed on male Sprague Dawley rats (200-250 g) obtained from the Sasco colony of Charles River Laboratories (Wilmington, Mass., USA). Animal housing and care were in accordance with the NIH Guide for the Care and Use of Laboratory Animals, NIH Publication No. 85-23, 1985. Animals were fed a normal protein diet (22% protein, Teklad No. 86 550, Teklad Premier Laboratory Diets, Madison, Wis., USA). Glomerulonephritis was induced by tail vein injection of 2.25 mg/Kg of the monoclonal anti-Thy 1.1 antibody OX-7 (NCCC, Biovest International Inc, Minneapolis, Minn., USA). OX-7 binds to a Thy 1-like epitope on the surface of mesangial cells causing complement-dependent cell lysis followed by fibrotic tissue repair (Bagchus et al., Lab Invest. 55:680-687 (1986)). Control animals were injected with similar volumes of phosphate-buffered saline (PBS). […] The intensity of glomerular staining of collagen I and fibronectin was evaluated according to a 0 to 4 scale, which has been described in detail previously (Yamamoto et al., Kidney Int. 49:461-469 (1996)). The number of cells per glomerulus, staining positive for the monocyte/macrophage marker ED1, were counted. Thirty glomeruli per sample were evaluated. The mean values with standard error values were calculated. […] The percent reduction in disease severity in a treated group was calculated as: […]

[2] = test system: adult human mesangial cells; assay: Renin-induced TGFβ and fibronectin production by adult human mesangial cells (ELISA); assay type: cell-based; conditions: 10^−5 M inhibitor added at zero time with 10^−7 M human recombinant renin, adult cells, FIG. 7
Procedure: Primary cultures of adult human mesangial cells were grown from human nephrectomy tissues using standard methods. Cells were passaged 4-7 times and then plated (3,000 cell/cm^2) in 12 well plates in 2 ml of medium (Mesangial Basal Medium (Clonetics Corp.) containing 5% FCS, 10 μg/ml penicillin and 100 μg/ml streptomycin) and allowed to grow to 70% confluency for 48 hours at 37EC, 5% CO2. Cultures were washed three times using sterile phosphate buffered saline at room temperature and then 2 ml/well of serum free MBM medium to induce quiescence. After 48 hours, the serum-free medium was removed and 2 ml/well of fresh serum-free medium was added for 24 hours. Human recombinant renin (HrRenin, Hoffman-La Roche Ltd., Basel, Switzerland) in concentrations from 10^−6 to 10^−12 M was added to each well for 24 hours. A blank (no HrRenin) was used as a control. Cells and supernatants were harvested by centrifugation after 24 hrs of culture and frozen at ^−70EC until analysis.
The total production and release of TGFβ into the culture supernatant was measured using an ELISA kit (R & D Systems). Induction of the matrix protein fibronectin (Fn) in the supernatant was measured using anti-fibronectin antibodies in an ELISA to provide further confirmation of induction of TGFβ. Renin-induced induction of TGFβ, fibronectin and PAI-1 mRNA were measured over time using semi-quantitative RT-PCR in a multiplex system where multiple cDNAs are amplified simultaneously according to Dostal et al., Anal. Biochem. 223:239-250 (1994), incorporated by reference herein Determinations were done in triplicate mesangial cell cultures.
Renin inhibitor Ro42-5892 (Hoffman-LaRoche, Basel, Switzerland), Losartan™ (Merck Pharmaceuticals, West Point, Pa.), Enalapril™ (Sigma Chemical Co., St. Louis, Mo., Prod. No. E6888), or TGFβ1 neutralizing antibody (R & D Systems) were added in the amounts indicated below to separate wells in triplicate to block the renin cascade at different sites after stimulation by renin: • 10^−5 M Renin Inhibitor R042-5892 (Hoffman-LaRoche) • 10^−5 M Enalapril™ (Sigma Chemical Co., St. Louis, Mo.) • 10^−5 M Losartan™ (Merck Pharmaceuticals, West Point, Pa.) • Controls included neutralizing antibody to TGFβ (ATG) and control IgG (TgG)
These inhibitors were added at zero time with 10^−7 M human recombinant renin (Hoffman-LaRoche).

Which “reduction of number of ED1+ cells” value [1] does the source give for `CCOC(=O)[C@H](CCc1ccccc1)N[C@@H](C)C(=O)N1CCC[C@H]1C(=O)O` [enalapril] here?
Its value is 62%.

What about the “renin-induced increase in TGFβ production” value [2] of the same compound?
Its value is “does not reduce the renin-induced increase in TGFβ production”.

— patent US7763580B2, “Methods for treating conditions associated with the accumulation of excess extracellular matrix” (University of Utah Research Foundation, priority 1999, dated 2010)
